Source: EP0908457B1, “3-(1,2-benzisothiazol- and isoxazol-5-Y1)-2,4(1H,3H)-pyrimidinedione or thione and 3-(1,2-benzisothiazol- and isoxazol-5-y1)-4(3H)-pyrimidinone or thione herbicidal agents” (BASF AKTIENGESELLSCHAFT, priority 1997, dated 1999)

What was measured:
Cyperus iria [1] = test: Postemergence weed control under flooded paddy conditions, CYPIR (Rice Flatsedge); assay type: in vivo; conditions: rated three to four weeks after treatment
[2] = test system: Oryza sativa, (L.) Tebonnet; test: Rice tolerance to post-transplant applications under flooded paddy conditions (Example 188), ORYSAT (Rice, Tebonnet); conditions: rated three to four weeks after treatment
Sagittaria pygmaea, L. [3] = test: Postemergence weed control under flooded paddy conditions, SAGPY (Arrowhead (Pygmaea)); assay type: in vivo; conditions: rated three to four weeks after treatment
[4] = test system: Monochoria vaginalis, Presl.; test: Postemergence weed control under flooded paddy conditions, MOOVA (Monochoria); assay type: in vivo; conditions: rated three to four weeks after treatment
[5] = test system: Cyperus serotinus, Rottb.; test: Postemergence weed control under flooded paddy conditions, CYPSE (Flatsedge); assay type: in vivo; conditions: rated three to four weeks after treatment
[6] = test system: Echinochloa oryzoides (Ard.) Fritsch.; test: Postemergence weed control under flooded paddy conditions, ECHORC (Watergrass (Calif.)); assay type: in vivo; conditions: rated three to four weeks after treatment
[7] = test system: Oryza sativa, (L.) Tebonnet; test: Rice tolerance to post-transplant applications under flooded paddy conditions (Example 187), ORYSAT (Rice, Tebonnet); conditions: rated three to four weeks after treatment; also: meaning of each grade not given here
Sagittaria pygmaea, L. [8] = test: Preemergence weed control under flooded paddy conditions, SAGPY (Arrowhead (Pygmaea)); assay type: in vivo; conditions: flooded paddy, rated three to four weeks after treatment; also: meaning of each grade not given here
[9] = test system: Cyperus serotinus, Rottb.; test: Preemergence weed control under flooded paddy conditions, CYPSE (Flatsedge); assay type: in vivo; conditions: rated three to four weeks after treatment; also: meaning of each grade not given here
[10] = test system: Monochoria vaginalis, Presl.; test: Preemergence weed control under flooded paddy conditions, MOOVA (Monochoria); assay type: in vivo; conditions: flooded paddy, rated three to four weeks after treatment; also: meaning of each grade not given here
Cyperus iria [11] = test: Preemergence weed control under flooded paddy conditions, CYPIR (Rice Flatsedge); assay type: in vivo; conditions: flooded paddy, rated three to four weeks after treatment; also: meaning of each grade not given here
[12] = test system: Echinochloa oryzoides (Ard.) Fritsch.; test: Preemergence weed control under flooded paddy conditions, ECHORC (Watergrass (Calif.)); assay type: in vivo; conditions: flooded paddy, rated three to four weeks after treatment; also: meaning of each grade not given here
[13] = Rate 0.0320 kg/ha, preemergence
[14] = Rate 0.0620 kg/ha, preemergence
[15] = Rate 0.1250 kg/ha, preemergence
[16] = Rate 0.2500 kg/ha, preemergence
[17] = Rate 0.5000 kg/ha, preemergence
[18] = Rate 0.0320 kg/ha, preemergence weeds
[19] = Rate 0.0620 kg/ha, preemergence weeds
[20] = Rate 0.1250 kg/ha, preemergence weeds
[21] = Rate 0.2500 kg/ha, preemergence weeds

COC(=O)COc1ccc(C)cc1-c1noc2cc(F)c(-n3c(=O)cc(C(F)(F)F)n(C)c3=O)cc12 [Example 359, Acetic acid, {{2-{5-[3,6-dihydro-3-methyl-2,6-dioxo-4-(trifluoromethyl)-1(2H)-pyrimidinyl]-6-fluoro-1,2-benzisoxazol-3-yl}-p-tolyl}oxy}-, methyl ester]
herbicidal effect rating, CYPIR (Cyperus iria [1]; Rate 0.0320 kg/ha): 4.0 | herbicidal effect rating, CYPIR (Cyperus iria [1]; Rate 0.0620 kg/ha): 7.0 | herbicidal effect rating, CYPIR (Cyperus iria [1]; Rate 0.1250 kg/ha): 9.0 | herbicidal effect rating, ORYSAT (rice tolerance) ([2]; Rate 0.0320 kg/ha): 2.0 | herbicidal effect rating, ORYSAT (rice tolerance) ([2]; Rate 0.0620 kg/ha): 3.0 | herbicidal effect rating, ORYSAT (rice tolerance) ([2]; Rate 0.1250 kg/ha): 4.0 | herbicidal effect rating, SAGPY (Sagittaria pygmaea, L. [3]; Rate 0.0320 kg/ha): 0.0 | herbicidal effect rating, SAGPY (Sagittaria pygmaea, L. [3]; Rate 0.0620 kg/ha): 0.0 | herbicidal effect rating, SAGPY (Sagittaria pygmaea, L. [3]; Rate 0.1250 kg/ha): 0.0 | herbicidal effect rating, MOOVA ([4]; Rate 0.0320 kg/ha): 7.0 | herbicidal effect rating, MOOVA ([4]; Rate 0.0620 kg/ha): 7.0 | herbicidal effect rating, MOOVA ([4]; Rate 0.1250 kg/ha): 9.0 | herbicidal effect rating, CYPSE ([5]; Rate 0.0320 kg/ha): 0.0 | herbicidal effect rating, CYPSE ([5]; Rate 0.0620 kg/ha): 0.0 | herbicidal effect rating, CYPSE ([5]; Rate 0.1250 kg/ha): 0.0 | herbicidal effect rating, ECHORC ([6]; Rate 0.0320 kg/ha): 2.0 | herbicidal effect rating, ECHORC ([6]; Rate 0.0620 kg/ha): 6.0 | herbicidal effect rating, ECHORC ([6]; Rate 0.1250 kg/ha): 6.0 | herbicidal effect rating ORYSAT ([7]; Rate 0.0320 kg/ha): 6.5 | herbicidal effect rating ORYSAT ([7]; Rate 0.0620 kg/ha): 7.3 | herbicidal effect rating ORYSAT ([7]; Rate 0.1250 kg/ha): 8.8 | herbicidal effect rating ORYSAT ([7]; Rate 0.2500 kg/ha): 9.0 | herbicidal effect rating ORYSAT ([7]; Rate 0.5000 kg/ha): 9.0 | herbicidal effect rating, SAGPY (Sagittaria pygmaea, L. [8]; [13]): 0.0 | herbicidal effect rating, SAGPY (Sagittaria pygmaea, L. [8]; [14]): 0.5 | herbicidal effect rating, SAGPY (Sagittaria pygmaea, L. [8]; [15]): 1.8 | herbicidal effect rating, SAGPY (Sagittaria pygmaea, L. [8]; [16]): 4.5 | herbicidal effect rating, SAGPY (Sagittaria pygmaea, L. [8]; [17]): 5.0 | herbicidal effect rating, CYPSE [9, 13]: 9.0 | herbicidal effect rating, CYPSE [9, 14]: 6.0 | herbicidal effect rating, CYPSE [9, 15]: 9.0 | herbicidal effect rating, CYPSE [9, 16]: 9.0 | herbicidal effect rating, MOOVA [10, 13]: 8.8 | herbicidal effect rating, MOOVA [10, 14]: 9.0 | herbicidal effect rating, MOOVA [10, 15]: 9.0 | herbicidal effect rating, MOOVA [10, 16]: 9.0 | herbicidal effect rating, MOOVA [10, 17]: 9.0 | herbicidal effect rating, CYPIR (Cyperus iria [11]; [13]): 6.3 | herbicidal effect rating, CYPIR (Cyperus iria [11]; [14]): 7.5 | herbicidal effect rating, CYPIR (Cyperus iria [11]; [15]): 8.5 | herbicidal effect rating, CYPIR (Cyperus iria [11]; [16]): 9.0 | herbicidal effect rating, CYPIR (Cyperus iria [11]; [17]): 9.0 | herbicidal effect rating, ECHORC [12, 13]: 8.5 | herbicidal effect rating, ECHORC [12, 14]: 9.0 | herbicidal effect rating, ECHORC [12, 15]: 9.0 | herbicidal effect rating, ECHORC [12, 16]: 9.0 | herbicidal effect rating, ECHORC [12, 17]: 9.0

COc1ccc(OC)c(-c2nsc3ccc(-n4c(=O)cc(C(F)(F)F)n(C)c4=O)cc23)c1 [Example 333, 2,4(1H,3H)-Pyrimidinedione, 3-[3-(2,5-dimethoxyphenyl)-1,2-benzisothiazol-5-yl]-1-methyl-6-(trifluoromethyl)-]
herbicidal effect rating, CYPIR (Cyperus iria [1]; Rate 0.0320 kg/ha): 9.0 | herbicidal effect rating, CYPIR (Cyperus iria [1]; Rate 0.0620 kg/ha): 9.0 | herbicidal effect rating, CYPIR (Cyperus iria [1]; Rate 0.1250 kg/ha): 9.0 | herbicidal effect rating, CYPIR (Cyperus iria [1]; Rate 0.2500 kg/ha): 9.0 | herbicidal effect rating, ORYSAT (rice tolerance) ([2]; Rate 0.0320 kg/ha): 4.0 | herbicidal effect rating, ORYSAT (rice tolerance) ([2]; Rate 0.0620 kg/ha): 5.0 | herbicidal effect rating, ORYSAT (rice tolerance) ([2]; Rate 0.1250 kg/ha): 6.0 | herbicidal effect rating, ORYSAT (rice tolerance) ([2]; Rate 0.2500 kg/ha): 6.0 | herbicidal effect rating, SAGPY (Sagittaria pygmaea, L. [3]; Rate 0.0320 kg/ha): 0.0 | herbicidal effect rating, SAGPY (Sagittaria pygmaea, L. [3]; Rate 0.0620 kg/ha): 2.0 | herbicidal effect rating, SAGPY (Sagittaria pygmaea, L. [3]; Rate 0.1250 kg/ha): 4.0 | herbicidal effect rating, SAGPY (Sagittaria pygmaea, L. [3]; Rate 0.2500 kg/ha): 4.0 | herbicidal effect rating, MOOVA ([4]; Rate 0.0320 kg/ha): 9.0 | herbicidal effect rating, MOOVA ([4]; Rate 0.0620 kg/ha): 9.0 | herbicidal effect rating, MOOVA ([4]; Rate 0.1250 kg/ha): 9.0 | herbicidal effect rating, MOOVA ([4]; Rate 0.2500 kg/ha): 9.0 | herbicidal effect rating, CYPSE ([5]; Rate 0.0320 kg/ha): 0.0 | herbicidal effect rating, CYPSE ([5]; Rate 0.0620 kg/ha): 2.0 | herbicidal effect rating, CYPSE ([5]; Rate 0.1250 kg/ha): 4.0 | herbicidal effect rating, CYPSE ([5]; Rate 0.2500 kg/ha): 8.0 | herbicidal effect rating, ECHORC ([6]; Rate 0.0320 kg/ha): 9.0 | herbicidal effect rating, ECHORC ([6]; Rate 0.0620 kg/ha): 9.0 | herbicidal effect rating, ECHORC ([6]; Rate 0.1250 kg/ha): 9.0 | herbicidal effect rating, ECHORC ([6]; Rate 0.2500 kg/ha): 9.0 | herbicidal effect rating ORYSAT ([7]; Rate 0.0320 kg/ha): 4.0 | herbicidal effect rating ORYSAT ([7]; Rate 0.0620 kg/ha): 6.0 | herbicidal effect rating ORYSAT ([7]; Rate 0.1250 kg/ha): 7.0 | herbicidal effect rating ORYSAT ([7]; Rate 0.2500 kg/ha): 7.0 | herbicidal effect rating, SAGPY (Sagittaria pygmaea, L. [8]; [18]): 5.5 | herbicidal effect rating, SAGPY (Sagittaria pygmaea, L. [8]; [19]): 8.0 | herbicidal effect rating, SAGPY (Sagittaria pygmaea, L. [8]; [20]): 8.5 | herbicidal effect rating, SAGPY (Sagittaria pygmaea, L. [8]; [21]): 9.0 | herbicidal effect rating, CYPSE [9, 18]: 7.0 | herbicidal effect rating, CYPSE [9, 19]: 7.0 | herbicidal effect rating, CYPSE [9, 20]: 7.5 | herbicidal effect rating, CYPSE [9, 21]: 7.5 | herbicidal effect rating, MOOVA [10, 18]: 9.0 | herbicidal effect rating, MOOVA [10, 19]: 9.0 | herbicidal effect rating, MOOVA [10, 20]: 9.0 | herbicidal effect rating, MOOVA [10, 21]: 9.0 | herbicidal effect rating, CYPIR (Cyperus iria [11]; [18]): 9.0 | herbicidal effect rating, CYPIR (Cyperus iria [11]; [19]): 9.0 | herbicidal effect rating, CYPIR (Cyperus iria [11]; [20]): 9.0 | herbicidal effect rating, CYPIR (Cyperus iria [11]; [21]): 9.0 | herbicidal effect rating, ECHORC [12, 18]: 9.0 | herbicidal effect rating, ECHORC [12, 19]: 9.0 | herbicidal effect rating, ECHORC [12, 20]: 9.0 | herbicidal effect rating, ECHORC [12, 21]: 9.0
